# Values of other authors, collected in US6903136B2, “Food supplements containing 4-hydroxyisoleucine and creatine” (Experimental and Applied Sciences, Inc., priority 2002, dated 2005).
# Columns and labels:
# insulinotropic activity [1] = conditions: normal and diabetic rats; intravenous and oral delivery
# secretion of insulin = conditions: in vitro
# insulinotropic activity [2] = system: insulinotropic activity
SMILES,insulinotropic activity in vivo (insulinotropic activity [1]),effect on secretion of insulin (secretion of insulin; normal blood glucose levels),insulinotropic activity (secretion of insulin; supranormal glucose levels),activity as an insulinotropic agent (insulinotropic activity [2]),"activity as an insulinotropic agent relative to leucine, isoleucine, or homoserine (insulinotropic activity [2]; fold more active than leucine, isoleucine, or homoserine)"
"CC(O)[C@H](C)[C@H](N)C(=O)O (stereo partly shown) [Example 4OH-Ile, 4-Hydroxyisoleucine]",verified the insulinotropic activity in vivo,does not affect the secretion of insulin,strong insulinotropic activity,–,–
"C[C@@H]([C@H](C)O)[C@H](N)C(=O)O (single isomer, unassigned) [(2S, 3R, 4S) stereoisomer of 4OH-Ile]",–,–,–,active,at least 15 ×
"CC(O)C(C)C(N)C(=O)O (single isomer, unassigned) [(2R, 3R, 4S) isomer]",–,–,–,inactive,–
CC1OC(=O)C(N)C1C (stereo not shown) [lactone form of 4OH-Ile],–,–,–,not active,–
